Key:
[1] = Population PK model of miglustat, oral dosing in Gaa knockout mice; type: in vivo, mouse; settings: typical value
Experimental: A population PK model of miglustat is constructed based on oral dosing in Gaa knockout (KO) mice. The model has a residual additive error of 0.475 ng/m L.

[2] = target: acid α-glucosidase (Homo sapiens, UniProt P10253); assay: Inhibition of acid α-glucosidase activity; type: biochemical
Experimental: Pharmacokinetic models (Example 8) were used to predict the length of time that the plasma or tissue concentrations of duvoglustat (a surrogate of miglustat) would remain above the IC50 (the concentration giving 50% of maximum inhibition of acid α-glucosidase activity) of miglustat in plasma and lysosome. Inhibition of acid α-glucosidase activity is determined by methods described previously (Flanagan J J, Rossi B, Tang K, Wu X, Mascioli K, et al. (2009) “The pharmacological chaperone 1-deoxynojirimycin increases the activity and lysosomal trafficking of multiple mutant forms of acid alpha-glucosidase.” Hum Mutat 30: 1683-1692).

[3] = target: ATB200 (Homo sapiens, UniProt P10253, H199R/R223H/V780I); assay: Unfolding of ATB200 protein vs. temperature with and without miglustat (FIG. 1); type: physicochemical; settings: various pH
Excerpt: Without being bound by theory, it is believed that miglustat acts as a pharmacological chaperone for the recombinant human acid α-glucosidase ATB200 and binds to its active site. […] However, the binding of miglustat to the active site of ATB200 also can result in inhibition of the enzymatic activity of ATB200 by preventing the natural substrate, glycogen, from accessing the active site.

Structure (SMILES): CCCCN1C[C@H](O)[C@@H](O)[C@H](O)[C@H]1CO [miglustat, (2R,3R,4R,5S)-1-butyl-2-(hydroxymethyl)piperidine-3,4,5-triol]
- Central volume of distribution (Vc) [1]: 4.55 mL
- Peripheral clearance (CLd) [1]: 4.57 mL/h
- Peripheral volume of distribution (V2) [1]: 19.6 mL
- Rate constant of absorption (Ka) [1]: 2.09 h⁻¹
- Systemic clearance (CL) [1]: 43.3 mL/h
- IC50, inhibition of acid α-glucosidase activity ([2]; pH of plasma (pH 7.0)): 0.17 µg/mL
- IC50 ([2]; pH of the lysosomal compartment (pH 5.2)): 1720 nM
- percentage of unfolded ATB200 protein [3]: decrease the percentage of unfolded ATB200 protein

Source: patent publication US20250381254A1, “Augmented Acid Alpha-Glucosidase For The Treatment Of Pompe Disease” (Amicus Therapeutics, Inc., priority 2015, published 2025)
